Biological target: T1, MAGL (Homo sapiens, UniProt Q99685)
T1 sequence (Q99685 1-303): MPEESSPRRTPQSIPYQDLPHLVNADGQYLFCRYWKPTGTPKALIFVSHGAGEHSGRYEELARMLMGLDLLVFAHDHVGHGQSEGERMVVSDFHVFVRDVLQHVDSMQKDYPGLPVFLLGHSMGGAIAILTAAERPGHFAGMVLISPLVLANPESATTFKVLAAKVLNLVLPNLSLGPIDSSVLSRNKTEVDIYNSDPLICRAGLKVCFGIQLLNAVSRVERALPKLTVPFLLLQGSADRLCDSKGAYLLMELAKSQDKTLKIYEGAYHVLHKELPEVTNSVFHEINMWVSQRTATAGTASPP
Experiment: MAGL inhibition, 2-AG assay (hydrolysis of 2-arachidonoylglycerol, arachidonic acid by mass spectrometry)
Type: biochemical
Conditions: 2-AG assay (footnote [b])
In short: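 Human MAGL […] was preincubated 15 min at RT with compound ([…], 3-fold steps) in 50 mM Tris, 1 mM EDTA, 0.01% Tween. 2-AG (8 μM) was then added for 30 min at RT. Arachidonic acid was quantified by RapidFire SPE–triple quadrupole MS in negative ESI as its ratio to a d8-arachidonic acid standard.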

Question: `CC1CN(C(=O)N2CC[C@@H]3OCC(=O)N[C@@H]3C2)CCC1c1ccc(C(C)(F)F)cn1` (single isomer, unassigned) [Example 44, (4aR,8aS)-6-((3S or 3R)-4-(5-(1,1-Difluoroethyl)pyridin-2-yl)-3-methylpiperidine-1-carbonyl)hexahydro-2H-pyrido[4,3-b][1,4]oxazin-3(4H)-one] was tested. Which IC50 did it give?
Answer: 381 nM

Question: `O=C1CO[C@H]2CCN(C(=O)N3CC(c4ccc(-c5ccc(Cl)cc5Cl)cn4)C3)C[C@H]2N1` [Example 193, (4aR,8aS)-6-(3-(5-(2,4-Dichlorophenyl)pyridin-2-yl)azetidine-1-carbonyl)hexahydro-2H-pyrido[4,3-b][1,4]oxazin-3(4H)-one] was tested. Which IC50 did it give?
Answer: 1 nM

Question: `O=C1CO[C@H]2CCN(C(=O)N3CCC(C(OCC(F)(F)F)c4ccc(F)cc4)CC3)C[C@H]2N1` (stereo partly drawn) [Example 50, (4aR,8aS)-6-(4-((4-Fluorophenyl)(2,2,2-trifluoroethoxy)methyl)piperidine-1-carbonyl)hexahydro-2H-pyrido[4,3-b][1,4]oxazin-3(4H)-one] was tested. Which IC50 did it give?
Answer: 9 nM

Question: Which IC50 does the source give for `O=C1CO[C@H]2CCN(C(=O)N3CC(c4ccc(N5CCC(C(F)(F)F)C5)nc4)C3)C[C@H]2N1` (stereo partly drawn) [Example 273, (4aR,8aS)-6-[3-[6-[3-(Trifluoromethyl)pyrrolidin-1-yl]-3-pyridyl]azetidine-1-carbonyl]-4,4a,5,7,8,8a-hexahydropyrido[4,3-b][1,4]oxazin-3-one] here?
Answer: 2 nM

Question: With `O=C1CO[C@H]2CCN(C(=O)N3CC(c4ccc(-c5ccccc5C(F)(F)F)cc4)C3)C[C@H]2N1` [Example 125, (4aR,8aS)-6-(3-(2′-(Trifluoromethyl)-[1,1′-biphenyl]-4-yl)azetidine-1-carbonyl)hexahydro-2H-pyrido[4,3-b][1,4]oxazin-3(4H)-one] as the molecule, how does the IC50 read?
Answer: 0.04 nM

Question: For `COc1ccc(C(c2ccccn2)C2CCN(C(=O)N3CC[C@@H]4OCC(=O)N[C@@H]4C3)CC2)cc1OC` (single isomer, unassigned) [Example 118, (4aR,8aS)-6-[4-[(R or S)-(3,4-dimethoxyphenyl)-(2-pyridyl)methyl]piperidine-1-carbonyl]-4,4a,5,7,8,8a-hexahydropyrido[4,3-b][1,4]oxazin-3-one], which IC50 is on record?
Answer: 25 nM

Question: How did the IC50 turn out when `CC(C)(C)[Si](C)(C)OCCn1cc(C2CCN(C(=O)N3CC[C@@H]4OCC(=O)NC4C3)CC2)c2cc(Cl)ccc21` (stereo in doubt) [Example 268, (4aS,8aS)-6-[4-[1-[2-[tert-Butyl(dimethyl)silyl]oxyethyl]-5-chloro-indol-3-yl]piperidine-1-carbonyl]-4,4a,5,7,8,8a-hexahydropyrido[4,3-b][1,4]oxazin-3-one] was run?
Answer: 670 nM

Question: Which IC50 does the source give for `N#Cc1cccc(Cl)c1-c1ccc(C2CN(C(=O)N3CC[C@@H]4OCC(=O)N[C@@H]4C3)C2)cc1` [Example 166, 2-[4-[1-[(4aR,8aS)-3-Oxo-4,4a,5,7,8,8a-hexahydropyrido[4,3-b][1,4]oxazine-6-carbonyl]azetidin-3-yl]phenyl]-3-chloro-benzonitrile] here?
Answer: 0.1 nM

Question: How did the IC50 turn out when `CC(Oc1ccc(C(F)(F)F)cc1F)C1CN(C(=O)N2CC[C@@H]3OCC(=O)N[C@@H]3C2)C1` (stereo partly drawn) [Example 91, (4aR,8aS)-6-(3-(1-(2-Fluoro-4-(trifluoromethyl)phenoxy)ethyl)azetidine-1-carbonyl)hexahydro-2H-pyrido[4,3-b][1,4]oxazin-3(4H)-one] was run?
Answer: 15 nM

Question: With `CCC1CCCN1c1ccc(C2CN(C(=O)N3CC[C@@H]4OCC(=O)N[C@@H]4C3)C2)cc1` (stereo partly drawn) [Example 165, (4aR,8aS)-6-[3-[4-(2-Ethylpyrrolidin-1-yl)phenyl]azetidine-1-carbonyl]-4,4a,5,7,8,8a-hexahydropyrido[4,3-b][1,4]oxazin-3-one] as the molecule, how does the IC50 read?
Answer: 0.4 nM

Question: For `CC1(O)CN(c2ccc(C3CN(C(=O)N4CC[C@@H]5OCC(=O)N[C@@H]5C4)C3)cc2)C1` [Example 199, (4aR,8aS)-6-[3-[4-(3-Hydroxy-3-methylazetidin-1-yl)phenyl]azetidine-1-carbonyl]-4,4a,5,7,8,8a-hexahydropyrido[4,3-b][1,4]oxazin-3-one], which IC50 is on record?
Answer: 278 nM

Question: `CC(Oc1ccc(C(F)(F)F)cc1Cl)C1CN(C(=O)N2CC[C@@H]3OCC(=O)N[C@@H]3C2)C1` (single isomer, unassigned) [Example 75, (4aR,8aS)-6-(3-(R or S)-(1-(2-chloro-4-(trifluoromethyl)phenoxy)ethyl)azetidine-1-carbonyl)hexahydro-2H-pyrido[4,3-b][1,4]oxazin-3(4H)-one] was tested. Which IC50 did it give?
Answer: 28 nM

Question: With `COc1ccc(C(c2ccncc2)C2CCN(C(=O)N3CC[C@@H]4OCC(=O)N[C@@H]4C3)CC2)cc1OC` (single isomer, unassigned) [Example 149, (4aR,8aS)-6-[4-[(R or S)-(3,4-Dimethoxyphenyl)-(4-pyridyl)methyl]piperidine-1-carbonyl]-4,4a,5,7,8,8a-hexahydropyrido[4,3-b][1,4]oxazin-3-one] as the molecule, how does the IC50 read?
Answer: 51 nM

Question: With `O=C1CO[C@H]2CCN(C(=O)N3CC(c4cc(F)c(OC(F)(F)F)c(F)c4)C3)C[C@H]2N1` [Example 204, (4aR,8aS)-6-(3-(3,5-Difluoro-4-(trifluoromethoxy)phenyl)azetidine-1-carbonyl)hexahydro-2H-pyrido[4,3-b][1,4]oxazin-3(4H)-one] as the molecule, how does the IC50 read?
Answer: 10 nM

Question: With `O=C1CO[C@H]2CCN(C(=O)N3CC(c4ccc(N5CC6CC6C5)cc4)C3)C[C@H]2N1` (stereo partly drawn) [Example 170, (4aR,8aS)-6-(3-(4-(3-Azabicyclo[3.1.0]hexan-3-yl)phenyl)azetidine-1-carbonyl)hexahydro-2H-pyrido[4,3-b][1,4]oxazin-3(4H)-one] as the molecule, how does the IC50 read?
Answer: 2 nM

Question: How did the IC50 turn out when `O=C1CO[C@H]2CCN(C(=O)N3CC(O)(c4ccc(Br)cc4)C3)C[C@H]2N1` [Example 123, (4aR,8aS)-6-(3-(4-Bromophenyl)-3-hydroxyazetidine-1-carbonyl)hexahydro-2H-pyrido[4,3-b][1,4]oxazin-3(4H)-one] was run?
Answer: 226 nM

Question: How did the IC50 turn out when `O=C1CO[C@H]2CCN(C(=O)N3CC(C(F)(c4ccc(F)cc4)c4ccc(F)cc4)C3)C[C@H]2N1` [Example 55, (4aR,8aS)-6-(3-(Fluorobis(4-fluorophenyl)methyl)azetidine-1-carbonyl)hexahydro-2H-pyrido[4,3-b][1,4]oxazin-3(4H)-one] was run?
Answer: 419 nM

Question: With `CC(OC1CN(C(=O)N2CC[C@@H]3OCC(=O)N[C@@H]3C2)C1)c1ccc(C(F)(F)F)cc1` (single isomer, unassigned) [Example 115, (4aR,8aS)-6-(3-(1-(S or R)-4-(Trifluoromethyl)phenyl)ethoxy)azetidine-1-carbonyl)hexahydro-2H-pyrido[4,3-b][1,4]oxazin-3(4H)-one] as the molecule, how does the IC50 read?
Answer: 79 nM

Question: `CC1CN(c2cc(C3CN(C(=O)N4CC[C@@H]5OCC(=O)N[C@@H]5C4)C3)ccc2OC(F)(F)F)C1` [Example 227, (4aR,8aS)-6-(3-(3-(3-Methylazetidin-1-yl)-4-(trifluoromethoxy)phenyl)azetidine-1-carbonyl)hexahydro-2H-pyrido[4,3-b][1,4]oxazin-3(4H)-one] was tested. Which IC50 did it give?
Answer: 14 nM

Question: For `Cc1ccc(C(c2ccc(F)cc2)C2CCN(C(=O)N3CC[C@@H]4OCC(=O)N[C@@H]4C3)CC2)cc1` (single isomer, unassigned) [Example 72, (4aR,8aS)-6-(4-((R or S)-(4-Fluorophenyl)(p-tolyl)methyl)piperidine-1-carbonyl)hexahydro-2H-pyrido[4,3-b][1,4]oxazin-3(4H)-one], which IC50 is on record?
Answer: 0.1 nM

Question: For `O=C1CO[C@H]2CCN(C(=O)N3CC(c4ccc(-c5ccccc5C(F)F)cc4)C3)C[C@H]2N1` [Example 142, (4aR,8aS)-6-[3-[4-[2-(Difluoromethyl)phenyl]phenyl]azetidine-1-carbonyl]-4,4a,5,7,8,8a-hexahydropyrido[4,3-b][1,4]oxazin-3-one], which IC50 is on record?
Answer: 0.1 nM

Question: For `COc1ccc(C(c2ccc(F)cc2)C2CCN(C(=O)N3CC[C@@H]4OCC(=O)N[C@@H]4C3)CC2)cc1` (single isomer, unassigned) [Example 89, (4aR,8aS)-6-(4-((R or S)-(4-Fluorophenyl)(4-methoxyphenyl)methyl)piperidine-1-carbonyl)hexahydro-2H-pyrido[4,3-b][1,4]oxazin-3(4H)-one], which IC50 is on record?
Answer: 0.6 nM

Question: How did the IC50 turn out when `CCCc1ccc(C2CN(C(=O)N3CC[C@@H]4OCC(=O)N[C@@H]4C3)C2)cc1` [Example 242, (4aR,8aS)-6-(3-(4-Propylphenyl)azetidine-1-carbonyl)hexahydro-2H-pyrido[4,3-b][1,4]oxazin-3(4H)-one] was run?
Answer: 2 nM

Question: For `CC(Oc1ccc(C(F)(F)F)cc1Cl)C1CN(C(=O)N2CC[C@@H]3OCC(=O)N[C@@H]3C2)C1` (single isomer, unassigned) [Example 76, (4aR,8aS)-6-(3-(S or R)-(1-(2-Chloro-4-(trifluoromethyl)phenoxy)ethyl)azetidine-1-carbonyl)hexahydro-2H-pyrido[4,3-b][1,4]oxazin-3(4H)-one], which IC50 is on record?
Answer: 1 nM

Question: Which IC50 does the source give for `O=C1CO[C@H]2CCN(C(=O)N3CC(c4ccc(C5CCCOC5)cc4)C3)C[C@H]2N1` (stereo partly drawn) [Example 276, (4aR,8aS)-6-[3-(4-Tetrahydropyran-3-ylphenyl)azetidine-1-carbonyl]-4,4a,5,7,8,8a-hexahydropyrido[4,3-b][1,4]oxazin-3-one] here?
Answer: 4 nM

Question: For `O=C1CO[C@H]2CCN(C(=O)N3CC(c4ccc(Cl)cn4)C3)C[C@H]2N1` [Example 181, (4aR,8aS)-6-(3-(5-Chloropyridin-2-yl)azetidine-1-carbonyl)hexahydro-2H-pyrido[4,3-b][1,4]oxazin-3(4H)-one], which IC50 is on record?
Answer: 593 nM
